Laboratory results: patent publication US20230192878A1, “METHODS, THERAPIES AND USES FOR TREATING CANCER” (PFIZER INC., priority 2020, published 2023)

Legend:
MM.1S = assay: Soluble BCMA (sBCMA) shedding after GSI (ELISA); assay type: cell-based, Human; set-up: unit not given here; details: Table 6 (sBCMA in supernatant, ELISA), 24 hours
Raji = assay: Cell surface BCMA expression after GSI, concentration series, lymphoma cells; assay type: cell-based; details: 24 hours, ± SD
Protocol: Lymphoma cells (Raji cell line) were seeded in a 96-well U bottom plate at 40,000 cells/well. Cells were incubated for 24 hours in the presence of GSI diluted in RPMI medium (0.1% DMSO). The following concentrations of the GSI were tested: 1000 nM, 500 nM, 100 nM, 50 nM, 25 nM, 10 nM, 5 nM, 2.5 nM, 1 nM, 0.1 nM, 0.01 nM. 24 hours later cells were collected and washed with PBS+2% FBS, followed by staining with ZombieNIR Viability Dye (Biolegend) at 1 in 500 dilution in PBS at room temperature for 20 minutes. Next, cells were washed with PBS+2% FBS and stained with anti-BCMA PE-labelled antibody (Biolegend) diluted in PBS+2% FBS for 30 minutes at 4° C. Cells were acquired on BD Flow Cytometer and analyzed using FlowJo flow cytometry analysis software. Dead cells were removed from the analysis by gating on ZombieNIR negative population. BCMA MFI was plotted against GSI concentration to establish EC50.

CD8+ T cells = assay: PD-1 induction on CD8+ T cells co-cultured with MM.1S-luc cells; assay type: cell-based, human; details: 1 nM BCMAxCD3 bispecific, ± SD
Protocol: CD3+ T cells from PBMCs (Stem Cell Technologies) were negatively selected using EasySep Human T cell enrichment kit (Stem Cell Technologies). 10,000 target Multiple Myeloma MM.1S cells expressing luciferase (MM.1S-luc) were seeded with 50,000 CD3^+ pan T cells in a clear 96-well V-bottom plate. Cells were treated with 1 nM BCMAxCD3 bispecific antibody and PD-1 expression was analyzed at 3, 24, 48 and 72 hours after addition of the BCMAxCD3 bispecific. At the specified time points, cells were collected from the wells, washed with PBS+2% FBS, and stained with ZombieNIR Viability dye (Biolegend) in PBS for 20 minutes at room temperature, followed by staining with antibodies against human CD8 and PD-1 (Biolegend). Samples were analyzed using FlowJo flow cytometry analysis software. Dead cells were removed from analysis by gating on ZombieNIR negative population. Samples were further gated on CD8^+ positive population. Percentage of PD-1+ cells is expressed as PD-1 positive cells within the CD8+ population.

H929-luc = assay: BCMAxCD3 bispecific mediated cell killing with human T cells, with or without GSI; assay type: cell-based; details: 60 hours, with or without 1 μM GSI
Protocol: (§1) CD3^+ T cells from PBMCs (Stem Cell Technologies) were negatively selected using EasySep Human T cell enrichment kit (Stem Cell Technologies). Multiple myeloma cells expressing luciferase (MM.1S-luc, OPM2-luc, H929-luc, Molp8-luc, RPM18226-luc) were treated with 1 μM GSI […]. After 24 hours, cells were seeded with 50,000 CD3^+ pan T cells in a clear 96-well V-bottom plate. Cells were further treated with a range of BCMAxCD3 bispecific antibody concentrations with or without 1 μM GSI. 60 hours after treatment, luciferase activity in treated cells was analyzed using NeoLite reagent kit (Perkin Elmer) and acquired on VictorX multimode plate reader (Perkin Elmer). Cell viability was calculated by dividing luciferase activity of treated cells over luciferase activity of untreated control (no BCMAxCD3 bispecific antibody added).

Molp8-luc = assay: as above; assay type: cell-based; details: 60 hours, with or without 1 μM GSI
Protocol: as §1

MM.1S-Luc-PD-L1 = assay: Orthotopic MM.1S-Luc-PD-L1 multiple myeloma mouse model; assay type: in vivo, NSG mice; details: bispecific 10 μg/kg IV once (day 21), anti-PD-1 5 mg/kg IP twice a week
Protocol: MM.1 S-Luc multiple myeloma cells were engineered to express PD-L1 and are referred to as MM.1S-Luc-PD-L1. MM.1S-Luc-PD-L1 cells were prepared as a single cell suspension of 5×10^6 cells for intravenous (IV) inoculation into NSG mice.
Tumor growth was monitored by luminescent imaging by intraperitoneal (IP) injection of luciferin solution in DPBS and imaged using Perkin Elmer IVIS Spectrum camera system. Animals were administered 2×10^7 expanded human T cells IV 19 days after tumor cell inoculation. Two days following T cell administration, a single dose of the BCMAxCD3 bispecific (10 μg/kg) was administered as a bolus IV injection. Anti-PD-1 antibody was administered twice a week as a bolus IP injection at 5 mg/kg for a total of 6 injections.
Tumor growth was monitored via imaging measurements collected twice weekly. Mice were imaged using the Perkin Elmer IVIS Spectrum camera system with automatic parameter determination and a maximum imaging time of 3 minutes. Living Image software was used to collect the data. Regions of Interest (ROIs) were drawn around the entire body of the mouse, excluding as much as possible of the tail. Background flux, as measured on the anesthesia manifold, is subtracted from each ROI. Tumor measurements are expressed as total flux expressed in photons/sec (p/s). Study was terminated at day 40 post tumor inoculation.

CCC[C@H](N[C@H]1CCc2cc(F)cc(F)c2C1)C(=O)Nc1cn(C(C)(C)CNCC(C)(C)C)cn1 [GSI, nirogacestat]
BCMA (-PE) MFI (MM.1S; GSI 0.01 nM): 3794.2 | BCMA (-PE) MFI (MM.1S; GSI 0.1 nM): 5797.5 | BCMA (-PE) MFI (MM.1S; GSI 1 nM): 5143.1 | BCMA (-PE) MFI (MM.1S; GSI 2.5 nM): 3988.3 | BCMA (-PE) MFI (MM.1S; GSI 5 nM): 2453.6 | BCMA (-PE) MFI (MM.1S; GSI 10 nM): 1661.5 | BCMA (-PE) MFI (MM.1S; GSI 25 nM): 630.5 | BCMA (-PE) MFI (MM.1S; GSI 50 nM): 279.9 | BCMA (-PE) MFI (MM.1S; GSI 100 nM): 21.3 | BCMA (-PE) MFI (MM.1S; GSI 500 nM): 151.8 | BCMA (-PE) MFI (MM.1S; GSI 1000 nM): 350 | BCMA MFI (Raji; GSI 0.01 nM): 142.5 ± 0.8 | BCMA MFI (Raji; GSI 0.10 nM): 147.5 ± 20.6 | BCMA MFI (Raji; GSI 1.00 nM): 398 ± 34 | BCMA MFI (Raji; GSI 2.50 nM): 469 ± 31.2 | BCMA MFI (Raji; GSI 5.00 nM): 484 ± 43.9 | BCMA MFI (Raji; GSI 10.00 nM): 515.5 ± 47.4 | BCMA MFI (Raji; GSI 25.00 nM): 532 ± 42.5 | BCMA MFI (Raji; GSI 50.00 nM): 535 ± 65.1 | BCMA MFI (Raji; GSI 100.00 nM): 498.5 ± 20.6 | BCMA MFI (Raji; GSI 500.00 nM): 568.5 ± 50.3 | BCMA MFI (Raji; GSI 1000.00 nM): 534.5 ± 67.2

PF-06863135: heterodimeric humanized full-length bispecific antibody with one BCMA binding arm and one CD3 binding arm
% PD-1 (of CD8+ T cells) (CD8+ T cells; 3 hours): 12.8 ± 0.6% | % PD-1 (of CD8+ T cells) (CD8+ T cells; 24 hours): 18.9 ± 1.2% | % PD-1 (of CD8+ T cells) (CD8+ T cells; 48 hours): 69.9 ± 3.1% | % PD-1 (of CD8+ T cells) (CD8+ T cells; 72 hours): 69.9 ± 3.1% | H929 cell viability (% control) (H929-luc; BCMA × CD3 0.00001 nM): 80.2 ± 0.3 % control | H929 cell viability (% control) (H929-luc; BCMA × CD3 0.00005 nM): 81.1 ± 0.2 % control | H929 cell viability (% control) (H929-luc; BCMA × CD3 0.00026 nM): 79 ± 0.8 % control | H929 cell viability (% control) (H929-luc; BCMA × CD3 0.00128 nM): 77.8 ± 3.3 % control | H929 cell viability (% control) (H929-luc; BCMA × CD3 0.0064 nM): 81.2 ± 3^ % control | H929 cell viability (% control) (H929-luc; BCMA × CD3 0.032 nM): 98.6 ± 1.2 % control | H929 cell viability (% control) (H929-luc; BCMA × CD3 0.16 nM): 23.2 ± 7.2 % control | H929 cell viability (% control) (H929-luc; BCMA × CD3 0.8 nM): 11.3 ± 1.5 % control | H929 cell viability (% control) (H929-luc; BCMA × CD3 4 nM): 8.6 ± 3 % control | Molp8 cell viability (% control) (Molp8-luc; BCMA × CD3 0.00001 nM): 64 ± 11.6 % control | Molp8 cell viability (% control) (Molp8-luc; BCMA × CD3 0.00005 nM): 59.1 ± 4.6 % control | Molp8 cell viability (% control) (Molp8-luc; BCMA × CD3 0.00026 nM): 58.5 ± 0.6 % control | Molp8 cell viability (% control) (Molp8-luc; BCMA × CD3 0.00128 nM): 66.7 ± 0.3 % control | Molp8 cell viability (% control) (Molp8-luc; BCMA × CD3 0.0064 nM): 55.2 ± 1.3 % control | Molp8 cell viability (% control) (Molp8-luc; BCMA × CD3 0.032 nM): 66.1 ± 4.9 % control | Molp8 cell viability (% control) (Molp8-luc; BCMA × CD3 0.16 nM): 8 ± 2 % control | Molp8 cell viability (% control) (Molp8-luc; BCMA × CD3 0.8 nM): 6.1 ± 0.7 % control | Molp8 cell viability (% control) (Molp8-luc; BCMA × CD3 4 nM): 5.2 ± 0.3 % control | Tumor measurements expressed as total flux (MM.1S-Luc-PD-L1; day 15 post tumor cell inoculation): 1.513 × 10^7 p/s | Tumor measurements expressed as total flux (MM.1S-Luc-PD-L1; day 18 post tumor cell inoculation): 8.343 × 10^7 p/s | Tumor measurements expressed as total flux (MM.1S-Luc-PD-L1; day 20 post tumor cell inoculation): 1.788 × 10^8 p/s | Tumor measurements expressed as total flux (MM.1S-Luc-PD-L1; day 25 post tumor cell inoculation): 2.2729 × 10^7 p/s | Tumor measurements expressed as total flux (MM.1S-Luc-PD-L1; day 28 post tumor cell inoculation): 7.082 × 10^7 p/s | Tumor measurements expressed as total flux (MM.1S-Luc-PD-L1; day 32 post tumor cell inoculation): 7.076 × 10^7 p/s
